Test system: MOLT-4 cells
Assay: MOLT-4 Cell Proliferation Assay (CellTiter-Glo)
Format: cell-based
Conditions: Homo sapiens, 72 h, read-out: MOLT-4 CTG IC50
Experimental: Cell proliferation was measured using the CellTiter-Glo® Luminescent Cell Viability Assay. The assay involved the addition of a single reagent (CellTiter-Glo® Reagent) directly to cells cultured in serum-supplemented medium. MOLT-4 cells (ATCC, CRL-1582) were cultured according to ATCC recommendations and were seeded at 50,000 cells per well.
Each compound evaluated was prepared as a DMSO stock solution (10 mM). Compounds were tested in duplicate on each plate, with a 10-point serial dilution curve (1:3 dilution). The highest compound concentration was 10 μM (final), with a 0.1% final DMSO concentration. Plates were then incubated at 37° C., 5% CO2 for 72 h, cell plates were equilibrated at rt for approximately 30 mins. An equi-volume amount of CellTiter-Glo® Reagent (100 μL) was added to each well. Plates were mixed for 2 mins on an orbital shaker to induce cell lysis and then incubated at rt for 10 mins to stabilize the luminescent signal. Luminescence was recorded using a Envision plate reader according to CellTiter-Glo protocol. IC50 of each compound was calculated using GraphPad Prism by nonlinear regression analysis.

Row | IC50 [nM] | Structure (SMILES)
1 | ≤ 50 | CC1(C)CCC(CN2CCN(c3ccc(C(=O)NS(=O)(=O)c4ccc(N[C@H](CCN5CCN(CCCNc6cccc7c6C(=O)N(C6CCC(=O)NC6=O)C7=O)CC5)CSc5ccccc5)c(S(=O)(=O)C(F)(F)F)c4)cc3)CC2)=C(C23CC(C(F)F)(C2)C3)C1 (stereo partly drawn) [Example 5, 4-[4-[[2-[3-(difluoromethyl)-1-bicyclo [1.1.1]pentanyl]-4,4-dimethyl-cyclohexen-1-yl]methyl]piperazin-1-yl]-N-[4-[[(1R)-3-[4-[3-[[2-(2,6-dioxo-3-piperidyl)-1,3-dioxo-isoindolin-4-yl]amino]propyl]piperazin-1-yl]-1-(phenylsulfanylmethyl)propyl]amino]-3-(trifluoromethylsulfonyl)phenyl]sulfonyl-benzamide]
2 | 50 to 150 | CC1(C)CCC(CN2CCN(c3ccc(C(=O)NS(=O)(=O)c4ccc(N[C@H](CCN5CCN(CCCCCNc6cccc7c6C(=O)N(C6CCC(=O)NC6=O)C7=O)CC5)CSc5ccccc5)c(S(=O)(=O)C(F)(F)F)c4)cc3)CC2)=C(C23CC(C)(C2)C3)C1 (stereo partly drawn) [Example 7, 4-(4-((4,4-dimethyl-2-(3-methylbicyclo[1.1.1]pentan-1-yl)cyclohex-1-en-1-yl)methyl)piperazin-1-yl)-N-((4-(((2R)-4-(4-(5-((2-(2,6-dioxopiperidin-3-yl)-1,3-dioxoisoindolin-4-yl)amino)pentyl)piperazin-1-yl)-1-(phenylthio)butan-2-yl)amino)-3-((trifluoromethyl)sulfonyl)phenyl)sulfonyl)benzamide]
3 | ≤ 50 | CC1(C)CCC(CN2CCN(c3ccc(C(=O)NS(=O)(=O)c4ccc(N[C@H](CCN5CCN(CCCCNc6cccc7c6C(=O)N(C6CCC(=O)NC6=O)C7=O)CC5)CSc5ccccc5)c(S(=O)(=O)C(F)(F)F)c4)cc3)CC2)=C(C23CC(C(F)F)(C2)C3)C1 (stereo partly drawn) [Example 8, 4-[4-[[2-[3-(difluoromethyl)-1-bicyclo[1.1.1]pentanyl]-4,4-dimethyl-cyclohexen-1-yl]methyl]piperazin-1-yl]-N-[4-[[(1R)-3-[4-[4-[[2-(2,6-dioxo-3-piperidyl)-1,3-dioxo-isoindolin-4-yl]amino]butyl]piperazin-1-yl]-1-(phenylsulfanylmethyl)propyl]amino]-3-(trifluoromethylsulfonyl)phenyl]sulfonyl-benzamide]
4 | 50 to 150 | CCC12CC(C3=C(CN4CCN(c5ccc(C(=O)NS(=O)(=O)c6ccc(N[C@H](CCN7CCN(CCCCCNc8cccc9c8C(=O)N(C8CCC(=O)NC8=O)C9=O)CC7)CSc7ccccc7)c(S(=O)(=O)C(F)(F)F)c6)cc5)CC4)CCC(C)(C)C3)(C1)C2 (stereo partly drawn) [Example 10, N-((4-(((2R)-4-(4-(5-((2-(2,6-dioxopiperidin-3-yl)-1,3-dioxoisoindolin-4-yl)amino)pentyl)piperazin-1-yl)-1-(phenylthio)butan-2-yl)amino)-3-((trifluoromethyl)sulfonyl)phenyl)sulfonyl)-4-(4-((2-(3-ethylbicyclo[1.1.1]pentan-1-yl)-4,4-dimethylcyclohex-1-en-1-yl)methyl)piperazin-1-yl)benzamide]
5 | ≥ 150 | CC1(C)CCC(CN2CCN(c3ccc(C(=O)NS(=O)(=O)c4ccc(N[C@H](CCN5CCN(CCCCCCNc6cccc7c6C(=O)N(C6CCC(=O)NC6=O)C7=O)CC5)CSc5ccccc5)c(S(=O)(=O)C(F)(F)F)c4)cc3)CC2)=C(C23CC(C(F)F)(C2)C3)C1 (stereo partly drawn) [Example 11, 4-[4-[[2-[3-(difluoromethyl)-1-bicyclo[1.1.1]pentanyl]-4,4-dimethyl-cyclohexen-1-yl]methyl]piperazin-1-yl]-N-[4-[[(1R)-3-[4-[6-[[2-(2,6-dioxo-3-piperidyl)-1,3-dioxo-isoindolin-4-yl]amino]hexyl]piperazin-1-yl]-1-(phenylsulfanylmethyl)propyl]amino]-3-(trifluoromethylsulfonyl)phenyl]sulfonyl-benzamide]
6 | ≤ 50 | CC1(C)CCC(CN2CCN(c3ccc(C(=O)NS(=O)(=O)c4ccc(N[C@H](CCN5CCN(CCCNc6ccc7c(c6)C(=O)N(C6CCC(=O)NC6=O)C7=O)CC5)CSc5ccccc5)c(S(=O)(=O)C(F)(F)F)c4)cc3)CC2)=C(C23CC(C(F)F)(C2)C3)C1 (stereo partly drawn) [Example 12, 4-[4-[[2-[3-(difluoromethyl)-1-bicyclo[1.1.1]pentanyl]-4,4-dimethyl-cyclohexen-1-yl]methyl]piperazin-1-yl]-N-[4-[[(1R)-3-[4-[3-[[2-(2,6-dioxo-3-piperidyl)-1,3-dioxo-isoindolin-5-yl]amino]propyl]piperazin-1-yl]-1-(phenylsulfanylmethyl)propyl]amino]-3-(trifluoromethylsulfonyl)phenyl]sulfonyl-benzamide]
7 | ≤ 50 | CC1(C)CCC(CN2CCN(c3ccc(C(=O)NS(=O)(=O)c4ccc(N[C@H](CCN5CCN(CCCCNc6ccc7c(c6)C(=O)N(C6CCC(=O)NC6=O)C7=O)CC5)CSc5ccccc5)c(S(=O)(=O)C(F)(F)F)c4)cc3)CC2)=C(C23CC(C(F)F)(C2)C3)C1 (stereo partly drawn) [Example 13, 4-[4-[[2-[3-(difluoromethyl)-1-bicyclo[1.1.1]pentanyl]-4,4-dimethyl-cyclohexen-1-yl]methyl]piperazin-1-yl]-N-[4-[[(1R)-3-[4-[4-[[2-(2,6-dioxo-3-piperidyl)-1,3-dioxo-isoindolin-5-yl]amino]butyl]piperazin-1-yl]-1-(phenylsulfanylmethyl)propyl]amino]-3-(trifluoromethylsulfonyl)phenyl]sulfonyl-benzamide]

More lines, now with the values behind:

Row | Structure (SMILES) | IC50 [nM]
8 | CC1(C)CCC(c2ccc(Cl)cc2)=C(CN2CCN(c3ccc(C(=O)NS(=O)(=O)c4ccc(N[C@H](CCN5CCOCC5)CSc5ccccc5)c(S(=O)(=O)C(F)(F)F)c4)cc3)CC2)C1 [ABT-263, navitoclax, reference compound] | 50 to 150
9 | Cc1ncsc1-c1ccc([C@H](C)NC(=O)[C@@H]2C[C@@H](O)CN2C(=O)[C@@H](NC(=O)CCCCC(=O)N2CCN(CC[C@H](CSc3ccccc3)Nc3ccc(S(=O)(=O)NC(=O)c4ccc(N5CCN(CC6=C(C78CC(C(F)F)(C7)C8)CC(C)(C)CC6)CC5)cc4)cc3S(=O)(=O)C(F)(F)F)CC2)C(C)(C)C)cc1 [Example 1, (2S,4R)-1-((S)-2-(6-(4-((R)-3-((4-(N-(4-(4-((2-(3-(difluoromethyl)bicyclo[1.1.1]pentan-1-yl)-4,4-dimethylcyclohex-1-en-1-yl)methyl)piperazin-1-yl)benzoyl)sulfamoyl)-2-((trifluoromethyl)sulfonyl)phenyl)amino)-4-(phenylthio)butyl)piperazin-1-yl)-6-oxohexanamido)-3,3-dimethylbutanoyl)-4-hydroxy-N—((S)-1-(4-(4-methylthiazol-5-yl)phenyl)ethyl)pyrrolidine-2-carboxamide] | ≥ 150
10 | CC1(C)CCC(CN2CCN(c3ccc(C(=O)NS(=O)(=O)c4ccc(N[C@H](CCN5CCN(CCCCCNc6cccc7c6C(=O)N(C6CCC(=O)NC6=O)C7=O)CC5)CSc5ccccc5)c(S(=O)(=O)C(F)(F)F)c4)cc3)CC2)=C(C23CC(C(F)F)(C2)C3)C1 (stereo partly drawn) [Example 2, 4-(4-((2-(3-(difluoromethyl)bicyclo[1.1.1]pentan-1-yl)-4,4-dimethylcyclohex-1-en-1-yl)methyl)piperazin-1-yl)-N-((4-(((2R)-4-(4-(5-((2-(2,6-dioxopiperidin-3-yl)-1,3-dioxoisoindolin-4-yl)amino)pentyl)piperazin-1-yl)-1-(phenylthio)butan-2-yl)amino) ((trifluoromethyl)sulfonyl)phenyl)sulfonyl)benzamide] | ≤ 50
11 | CC1(C)CCC(CN2CCN(c3ccc(C(=O)NS(=O)(=O)c4ccc(N[C@H](CCN5CCN(CCCCCOc6cccc7c6C(=O)N(C6CCC(=O)NC6=O)C7=O)CC5)CSc5ccccc5)c(S(=O)(=O)C(F)(F)F)c4)cc3)CC2)=C(C23CC(C(F)F)(C2)C3)C1 (stereo partly drawn) [Example 3, 4-(4-((2-(3-(difluoromethyl)bicyclo [1.1.1]pentan-1-yl)-4,4-dimethylcyclohex-1-en-1-yl)methyl)piperazin-1-yl)-N-((4-(((2R)-4-(4-(5-((2-(2,6-dioxopiperidin-3-yl)-1,3-dioxoisoindolin-4-yl)oxy)pentyl)piperazin-1-yl)-1-(phenylthio)butan-2-yl)amino)-3-((trifluoromethyl)sulfonyl)phenyl)sulfonyl)benzamide] | ≤ 50
12 | CC1(C)CCC(CN2CCN(c3ccc(C(=O)NS(=O)(=O)c4ccc(N[C@H](CCN5CCN(CCCCCNc6ccc7c(c6)C(=O)N(C6CCC(=O)NC6=O)C7=O)CC5)CSc5ccccc5)c(S(=O)(=O)C(F)(F)F)c4)cc3)CC2)=C(C23CC(C(F)F)(C2)C3)C1 (stereo partly drawn) [Example 4, 4-(4-((2-(3-(difluoromethyl)bicyclo[1.1.1]pentan-1-yl)-4,4-dimethylcyclohex-1-en-1-yl)methyl)piperazin-1-yl)-N-((4-(((2R)-4-(4-(5-((2-(2,6-dioxopiperidin-3-yl)-1,3-dioxoisoindolin-5-yl)amino)pentyl)piperazin-1-yl)-1-(phenylthio)butan-2-yl)amino)-3-((trifluoromethyl)sulfonyl)phenyl)sulfonyl)benzamide] | 50 to 150

— US20230167105A1, “BCL-2 PROTEIN INHIBITORS” (Recurium IP Holdings, LLC, priority 2020, published 2023)
